From the NIST ThermoML archive (doi:10.1021/je900482x)
± gives the expanded uncertainty stated by the source.

Experiment: isobaric coefficient of expansion
Conditions: Liquid, Microcalorimeter

CCCCCC[n+]1ccn(C)c1.O=S(=O)([N-]S(=O)(=O)C(F)(F)F)C(F)(F)F
isobaric coefficient of expansion
Conditions	5000 kPa	10000 kPa	15000 kPa	20000 kPa	25000 kPa	30000 kPa	35000 kPa	40000 kPa	45000 kPa	50000 kPa
278.15 K	0.000674 ± 1.7e-05 1/K	0.000662 ± 1.6e-05 1/K	0.000654 ± 1.6e-05 1/K	0.000641 ± 1.6e-05 1/K	0.000635 ± 1.6e-05 1/K	0.000628 ± 1.5e-05 1/K	0.000619 ± 1.5e-05 1/K	0.000612 ± 1.5e-05 1/K	0.000602 ± 1.5e-05 1/K	0.000596 ± 1.5e-05 1/K
288.15 K	0.000668 ± 1.6e-05 1/K	0.000658 ± 1.6e-05 1/K	0.000647 ± 1.6e-05 1/K	0.000637 ± 1.6e-05 1/K	0.00063 ± 1.5e-05 1/K	0.00062 ± 1.5e-05 1/K	0.000614 ± 1.5e-05 1/K	0.000604 ± 1.5e-05 1/K	0.000597 ± 1.5e-05 1/K	0.000592 ± 1.5e-05 1/K
298.15 K	0.000664 ± 1.6e-05 1/K	0.000654 ± 1.6e-05 1/K	0.000643 ± 1.6e-05 1/K	0.000633 ± 1.6e-05 1/K	0.000626 ± 1.5e-05 1/K	0.000615 ± 1.5e-05 1/K	0.000605 ± 1.5e-05 1/K	0.000596 ± 1.5e-05 1/K	0.00059 ± 1.4e-05 1/K	0.000584 ± 1.4e-05 1/K
308.15 K	0.000659 ± 1.6e-05 1/K	0.000648 ± 1.6e-05 1/K	0.000637 ± 1.6e-05 1/K	0.000628 ± 1.5e-05 1/K	0.000618 ± 1.5e-05 1/K	0.000609 ± 1.5e-05 1/K	0.0006 ± 1.5e-05 1/K	0.000594 ± 1.5e-05 1/K	0.000585 ± 1.4e-05 1/K	0.000577 ± 1.4e-05 1/K
318.15 K	0.000654 ± 1.6e-05 1/K	0.000647 ± 1.6e-05 1/K	0.000637 ± 1.6e-05 1/K	0.000623 ± 1.5e-05 1/K	0.000615 ± 1.5e-05 1/K	0.000606 ± 1.5e-05 1/K	0.000597 ± 1.5e-05 1/K	0.000588 ± 1.4e-05 1/K	0.000578 ± 1.4e-05 1/K	0.000571 ± 1.4e-05 1/K
328.15 K	0.00065 ± 1.6e-05 1/K	0.000639 ± 1.6e-05 1/K	0.000632 ± 1.5e-05 1/K	0.000621 ± 1.5e-05 1/K	0.000609 ± 1.5e-05 1/K	0.000599 ± 1.5e-05 1/K	0.000591 ± 1.4e-05 1/K	0.000582 ± 1.4e-05 1/K	0.000574 ± 1.4e-05 1/K	0.000567 ± 1.4e-05 1/K
338.15 K	0.000649 ± 1.6e-05 1/K	0.000637 ± 1.6e-05 1/K	0.000627 ± 1.5e-05 1/K	0.000616 ± 1.5e-05 1/K	0.000605 ± 1.5e-05 1/K	0.000597 ± 1.5e-05 1/K	0.000588 ± 1.4e-05 1/K	0.00058 ± 1.4e-05 1/K	0.000571 ± 1.4e-05 1/K	0.000567 ± 1.4e-05 1/K
348.15 K	0.000644 ± 1.6e-05 1/K	0.000635 ± 1.6e-05 1/K	0.000623 ± 1.5e-05 1/K	0.00061 ± 1.5e-05 1/K	0.000602 ± 1.5e-05 1/K	0.000592 ± 1.5e-05 1/K	0.000584 ± 1.4e-05 1/K	0.000575 ± 1.4e-05 1/K	0.000567 ± 1.4e-05 1/K	0.000559 ± 1.4e-05 1/K

CCn1cc[n+](C)c1.O=S(=O)([N-]S(=O)(=O)C(F)(F)F)C(F)(F)F
isobaric coefficient of expansion
Conditions	5000 kPa	10000 kPa	15000 kPa	20000 kPa	25000 kPa	30000 kPa	35000 kPa	40000 kPa	45000 kPa	50000 kPa
278.15 K	0.00067 ± 1.6e-05 1/K	0.000659 ± 1.6e-05 1/K	0.000651 ± 1.6e-05 1/K	0.000645 ± 1.6e-05 1/K	0.000634 ± 1.6e-05 1/K	0.000628 ± 1.5e-05 1/K	0.000623 ± 1.5e-05 1/K	0.000612 ± 1.5e-05 1/K	0.000606 ± 1.5e-05 1/K	0.0006 ± 1.5e-05 1/K
288.15 K	0.000664 ± 1.6e-05 1/K	0.000653 ± 1.6e-05 1/K	0.000646 ± 1.6e-05 1/K	0.00064 ± 1.6e-05 1/K	0.000631 ± 1.5e-05 1/K	0.000623 ± 1.5e-05 1/K	0.000616 ± 1.5e-05 1/K	0.000606 ± 1.5e-05 1/K	0.000601 ± 1.5e-05 1/K	0.000597 ± 1.5e-05 1/K
298.15 K	0.000659 ± 1.6e-05 1/K	0.000651 ± 1.6e-05 1/K	0.000641 ± 1.6e-05 1/K	0.000633 ± 1.6e-05 1/K	0.000624 ± 1.5e-05 1/K	0.000617 ± 1.5e-05 1/K	0.000606 ± 1.5e-05 1/K	0.0006 ± 1.5e-05 1/K	0.000595 ± 1.5e-05 1/K	0.000589 ± 1.4e-05 1/K
308.15 K	0.000656 ± 1.6e-05 1/K	0.000644 ± 1.6e-05 1/K	0.000637 ± 1.6e-05 1/K	0.000627 ± 1.5e-05 1/K	0.000618 ± 1.5e-05 1/K	0.000611 ± 1.5e-05 1/K	0.000605 ± 1.5e-05 1/K	0.000597 ± 1.5e-05 1/K	0.000589 ± 1.4e-05 1/K	0.000581 ± 1.4e-05 1/K
318.15 K	0.000649 ± 1.6e-05 1/K	0.000644 ± 1.6e-05 1/K	0.000634 ± 1.6e-05 1/K	0.000623 ± 1.5e-05 1/K	0.000615 ± 1.5e-05 1/K	0.000607 ± 1.5e-05 1/K	0.000599 ± 1.5e-05 1/K	0.00059 ± 1.4e-05 1/K	0.000582 ± 1.4e-05 1/K	0.000576 ± 1.4e-05 1/K
328.15 K	0.000645 ± 1.6e-05 1/K	0.000635 ± 1.6e-05 1/K	0.000628 ± 1.5e-05 1/K	0.00062 ± 1.5e-05 1/K	0.000609 ± 1.5e-05 1/K	0.000601 ± 1.5e-05 1/K	0.000593 ± 1.5e-05 1/K	0.000584 ± 1.4e-05 1/K	0.000576 ± 1.4e-05 1/K	0.00057 ± 1.4e-05 1/K
338.15 K	0.000643 ± 1.6e-05 1/K	0.000633 ± 1.6e-05 1/K	0.000624 ± 1.5e-05 1/K	0.000614 ± 1.5e-05 1/K	0.000604 ± 1.5e-05 1/K	0.000598 ± 1.5e-05 1/K	0.000588 ± 1.4e-05 1/K	0.000582 ± 1.4e-05 1/K	0.000574 ± 1.4e-05 1/K	0.000569 ± 1.4e-05 1/K
348.15 K	0.00064 ± 1.6e-05 1/K	0.000629 ± 1.5e-05 1/K	0.00062 ± 1.5e-05 1/K	0.000612 ± 1.5e-05 1/K	0.000602 ± 1.5e-05 1/K	0.000595 ± 1.5e-05 1/K	0.000588 ± 1.4e-05 1/K	0.000579 ± 1.4e-05 1/K	0.000572 ± 1.4e-05 1/K	0.000565 ± 1.4e-05 1/K

CCCC[n+]1cccc(C)c1.F[B-](F)(F)F [1-butyl-3-methylpyridinium tetrafluoroborate]
isobaric coefficient of expansion
Conditions	5000 kPa	10000 kPa	15000 kPa	20000 kPa	25000 kPa	30000 kPa	35000 kPa	40000 kPa	45000 kPa	50000 kPa
278.15 K	0.000607 ± 1.5e-05 1/K	0.000601 ± 1.5e-05 1/K	0.000596 ± 1.5e-05 1/K	0.000591 ± 1.4e-05 1/K	0.000584 ± 1.4e-05 1/K	0.000581 ± 1.4e-05 1/K	0.000576 ± 1.4e-05 1/K	0.00057 ± 1.4e-05 1/K	0.000566 ± 1.4e-05 1/K	0.00056 ± 1.4e-05 1/K
288.15 K	0.0006 ± 1.5e-05 1/K	0.000593 ± 1.5e-05 1/K	0.000588 ± 1.4e-05 1/K	0.000585 ± 1.4e-05 1/K	0.000581 ± 1.4e-05 1/K	0.000575 ± 1.4e-05 1/K	0.000569 ± 1.4e-05 1/K	0.000564 ± 1.4e-05 1/K	0.000562 ± 1.4e-05 1/K	0.000558 ± 1.4e-05 1/K
298.15 K	0.000594 ± 1.5e-05 1/K	0.000589 ± 1.4e-05 1/K	0.000582 ± 1.4e-05 1/K	0.000577 ± 1.4e-05 1/K	0.000572 ± 1.4e-05 1/K	0.000566 ± 1.4e-05 1/K	0.00056 ± 1.4e-05 1/K	0.000556 ± 1.4e-05 1/K	0.000551 ± 1.3e-05 1/K	0.000549 ± 1.3e-05 1/K
308.15 K	0.000588 ± 1.4e-05 1/K	0.000582 ± 1.4e-05 1/K	0.000576 ± 1.4e-05 1/K	0.000569 ± 1.4e-05 1/K	0.000563 ± 1.4e-05 1/K	0.00056 ± 1.4e-05 1/K	0.000555 ± 1.4e-05 1/K	0.000551 ± 1.3e-05 1/K	0.000545 ± 1.3e-05 1/K	0.000541 ± 1.3e-05 1/K
318.15 K	0.00058 ± 1.4e-05 1/K	0.000578 ± 1.4e-05 1/K	0.000573 ± 1.4e-05 1/K	0.000565 ± 1.4e-05 1/K	0.00056 ± 1.4e-05 1/K	0.000554 ± 1.4e-05 1/K	0.000551 ± 1.3e-05 1/K	0.000545 ± 1.3e-05 1/K	0.000539 ± 1.3e-05 1/K	0.000535 ± 1.3e-05 1/K
328.15 K	0.000575 ± 1.4e-05 1/K	0.00057 ± 1.4e-05 1/K	0.000568 ± 1.4e-05 1/K	0.00056 ± 1.4e-05 1/K	0.000554 ± 1.4e-05 1/K	0.000549 ± 1.3e-05 1/K	0.000545 ± 1.3e-05 1/K	0.000539 ± 1.3e-05 1/K	0.000535 ± 1.3e-05 1/K	0.000531 ± 1.3e-05 1/K
338.15 K	0.000571 ± 1.4e-05 1/K	0.000567 ± 1.4e-05 1/K	0.000562 ± 1.4e-05 1/K	0.000554 ± 1.4e-05 1/K	0.000549 ± 1.3e-05 1/K	0.000545 ± 1.3e-05 1/K	0.000539 ± 1.3e-05 1/K	0.000536 ± 1.3e-05 1/K	0.00053 ± 1.3e-05 1/K	0.000529 ± 1.3e-05 1/K
348.15 K	0.000568 ± 1.4e-05 1/K	0.000562 ± 1.4e-05 1/K	0.000557 ± 1.4e-05 1/K	0.000554 ± 1.4e-05 1/K	0.000548 ± 1.3e-05 1/K	0.000542 ± 1.3e-05 1/K	0.00054 ± 1.3e-05 1/K	0.000534 ± 1.3e-05 1/K	0.000529 ± 1.3e-05 1/K	0.000526 ± 1.3e-05 1/K
